# Measured values reported in the OPERA property sets (Mansouri et al. 2018).
row,Compound,logP
1,COc1ccccc1N1CCN(CCNC(=S)C2CCCCC2)CC1,3.7
2,COc1ccccc1N1CCN(CCNC(=N)C2CCCCC2)CC1,3.4
3,COc1ccccc1N1CCN(CCCOc2ccc(F)cc2)CC1,4.1
4,COc1ccccc1N1CCN(CCCC(=O)c2ccc(F)cc2)CC1,3.6
5,COc1ccccc1N1CCN(CCNC(C)=O)CC1,0.5
6,COc1ccccc1N1CCN(CCNC(=O)c2cccs2)CC1,2
7,COc1ccccc1N1CCN(CCCC(O)c2ccc(F)cc2)CC1 (configuration not stated),3.4
8,COc1ccccc1N1CCN(CCOCc2ccc(F)cc2)CC1,3.6
9,COc1ccccc1N1CCN(CCNC(=O)c2ccco2)CC1,1.6
10,COc1ccccc1N1CCN(CCCCc2ccc(F)cc2)CC1,4.8
11,COc1ccccc1N1CCN(CCNC(=O)c2ccccc2)CC1,2.2
12,COc1ccccc1N1CCN(CCNC(=O)c2ccc[nH]2)CC1,1.6
13,COc1ccccc1N1CCN(CCC=Cc2ccc(F)cc2)CC1,4.7
14,COc1ccccc1N1CCN(CCNC(=O)C2CCCCC2)CC1,2.8
15,COc1ccccc1N1CCN(CCNC(=O)c2ccncn2)CC1,1.5
16,COc1ccccc1N1CCN(CCNC(=O)c2ccc(F)cc2)CC1,2.5
17,COc1ccccc1N1CCN(CCNC(=O)c2cccnc2)CC1,1.2
